According to ChEMBL document CHEMBL4017442, “Recent updates of carbapenem antibiotics” (Eur J Med Chem, 2017):

Columns and labels:
Staphylococcus aureus [1] = assay: Potentiation of imipenem-induced antibacterial activity against methicillin-reisitant Staphylococcus aureus assessed as fold reduction in imipenem MIC at 10 ug/ml measured after 20 hrs by liquid microdilution method relative to imipenem alone; assay type: functional
Staphylococcus aureus [2] = assay: Potentiation of imipenem-induced antibacterial activity against methicillin-reisitant Staphylococcus aureus assessed as imipenem MIC (reference value: 16 ug/ml); assay type: functional
[3] = Elimination half life in human at 1 g, iv administered as single dose; assay type: ADME, organism-based; settings: in vivo, read-out: beta t1/2 (converted)
Plasma = assay: Protein binding in human plasma at < 50 ug/ml; assay type: ADME, cell-free
Mus musculus = assay: Anti-inflammatory activity in mouse model of CLP-induced sepsis assessed as survival time at 25 ug/g, sc in presence of atorvastatin (reference value: 20 +/- 1.66 hrs); assay type: functional
[4] = Half life in iv dosed human; assay type: ADME, organism-based; settings: in vivo
[5] = Ratio of drug level in serum to cerebrospinal fluid in human; assay type: ADME
[6] = Clearance in end-stage renal disease patient undergoing drug hydrolysis; assay type: ADME; settings: human
[7] = Clearance in end-stage renal disease patient without drug hydrolysis; assay type: ADME; settings: human
Blood [8] = assay: Drug uptake in end-stage renal disease patient blood at 0.5 g, iv; assay type: ADME, tissue-based; settings: human
Blood [9] = assay: Drug uptake in end-stage renal disease patient blood at 0.75 g, iv; assay type: ADME, tissue-based; settings: human

In the case of C=C/C(C)=C/C[C@@H]1[C@@]2(C)CCC[C@](C)(CO)[C@@H]2C[C@H](O)[C@]1(O)CSC[C@H](NC(C)=O)C(=O)O, the “fold change (FC)” value (Staphylococcus aureus [1]) is reported as 123.

Molecule C=C/C(C)=C/C[C@@H]1[C@@]2(C)CCCC(C)(C)[C@@H]2C[C@H](O)[C@]1(O)CSC[C@H](NC(C)=O)C(=O)O has an MIC (Staphylococcus aureus [2]) of 0.05 µg/mL.

Work on C[C@@H](O)[C@H]1C(=O)N2C(C(=O)O)=C(S[C@@H]3CN[C@H](C(=O)Nc4cccc(C(=O)O)c4)C3)[C@H](C)[C@H]12 [ERTAPENEM] yielded a half-life [3] of 4 h and a PPB (Plasma) of 94%.

For C=C/C(C)=C/C[C@@H]1[C@@]2(C)CCCC(C)(C)[C@@H]2C[C@H](O)[C@]1(O)CSC[C@H](NC(C)=O)C(=O)OC, the “fold change (FC)” value (Staphylococcus aureus [1]) was 533.

C[C@@H](O)[C@H]1C(=O)N2C(C(=O)O)=C(SCCNC=N)C[C@H]12 [IMIPENEM ANHYDROUS] gave a Survival (Mus musculus) of 56 h and a half-life [4] of 1 h.

CC(=N)N1CC[C@H](SC2=C(C(=O)O)N3C(=O)[C@H]([C@@H](C)O)[C@H]3C2)C1 [PANIPENEM] gave a Ratio [5] of 8, a clearance [6] of 159 mL/min and a clearance [7] of 48.7 mL/min. For the same molecule, the half-life [4] was 1.2 h, the Drug uptake (Blood [8]) was 37 mg/L and the Drug uptake (Blood [9]) was 61 mg/L.

Molecule O=C(O)CCNC(=O)c1ccccc1 [BETAMIPRON] has a Drug uptake (Blood [8]) of 24 mg/L and a Drug uptake (Blood [9]) of 39 mg/L.
